This is an account of results in patent US7108832B2, “Sterialization methods and apparatus which employ additive-containing supercritical carbon dioxide sterilant” (NovaSterilis Inc., priority 2003, dated 2006).

Test [1] concerns B. stearothermophilus spores. The test can be described thus: Comparative additives in supercritical CO2 sterilization (Example 7). The format is cell-based. As to conditions: 1.0 vol. %.
For test [2], the system named is B. stearothermophilus spores. The test can be described thus: Inactivation of B. stearothermophilus spores, Dillow '864 method with and without additive (Example 1). It is filed as cell-based. As to conditions: 1500–3000 psi, 3 cycles, agitation random/directional +/−, 60 °C, 2 hrs, initial 2.3 × 10^6 CFU/ml. An excerpt: The effects of using an additive in accordance with the present invention was compared using the method described by U.S. Pat. No. 6,149,864 to Dillow et al for inactivating B. stearothermophilus spores. […] In contrast, a greater than 6 log reduction was achieved using the method of the present invention (Ex. B). The additive was placed on a cotton ball and inserted in the chamber prior to closure. No further additive was used.

Another test has as its system bacterial spores. The test can be described thus: Sterility assay of fresh or freeze-dried bone samples after treatment (Example 4). It is filed as cell-based. As to conditions: 4 mL additive, 50° C., 3000 to 1500 psi, 3 cycles of 40 minutes. The procedure:
Using the equipment and procedure in Example 1, samples of fresh or freeze-dried bone (1 cm×1 cm×0.5 cm) were placed into 16 mm test tubes in a stainless steel basket. Trifluoroacetic acid (4 mL) was transferred by syringe onto the surface of a cotton ball placed in basket, and the basket then loaded into the 600 mL reactor vessel. The reactor vessel was heated to 50° C. and equilibrated with CO2 at atmospheric pressure. The stirring and agitation mechanisms were activated and vessel pressurized to 3000 psi for 40 minutes. Agitation is carried out for 5 minutes. The CO2 pressure was then allowed to drop to 1500 psi at a rate of 300 psi/minute.
The pressurization/stirring/agitation/depressurization process was repeated a total of 3 times. After the third cycle, a series of three flushing cycles to remove the additive was performed by pressurizing and de-pressurizing the reactor vessel using CO2. The stirring was stopped and the basket was removed from the reactor vessel. Bone samples were assayed for sterility and compression strength with the results being that there was sterilization (i.e., >10^6 reduction in bacterial spores), and there was no reduction in compression strength attributes.

For test [3], the system named is B. stearothermophilus spores. The test can be described thus: Sterilization of B. stearothermophilus spores with additive-containing supercritical CO2, residual CFU count (Example 2). It is filed as cell-based. The note with it: 4 mL additive + 6 mL water, 50° C., 2000 to 1100 psi, 3 cycles; multiple evaluations. The procedure:
The apparatus generally depicted in FIGS. 1 and 2 was employed for this Example. A sample of B. stearothermophilus spores (1 mL) of greater than 10^6 CFU/mL was placed in 16 mm diameter test tubes in a stainless steel basket. Trifluoroacetic acid (4 mL) was transferred by syringe onto the surface of a cotton ball placed in the basket and water (6 mL) was placed at bottom of vessel. The basket was then loaded into the 600 mL reactor vessel. The reactor vessel was heated to 50° C. and equilibrated with CO2 at atmospheric pressure. The stirring and agitation mechanisms were activated and the reactor vessel pressurized to 2000 psi for 40 minutes. The CO2 pressure was then allowed to drop to 1100 psi at a rate of 300 psi/minute. Agitation by means of vibration of the vessel was carried out for 1 minute.
The pressurization/stirring/agitation/depressurization process was repeated a total of three times. After the third cycle, a series of three flushing cycles to remove the additive was performed by pressurizing and partial de-pressurizing the reactor vessel using CO2. The stirring was stopped and the basket was removed from the reactor vessel. The residual CFUs were counted after serial dilution and culturing of both treated and untreated controls.

Test [4] relates to B. subtilis spore/vegetative preparations. The test can be described thus: Sterilization of B. subtilis spore/vegetative preparations with additive-containing supercritical CO2, residual CFU count (Examples 3A-3D, 6A, 6B). As to conditions: for kill of bioindicators: constant 2000 psi rather than cycling. The format is cell-based. The procedure: A sample of B. subtilis spore/vegetative preparations (1 mL) of greater than 10^6 CFU/mL was placed in a 16 mm diameter test tube in a stainless steel basket. Acetic acid (6 mL) was transferred by syringe onto the surface of a cotton ball placed in the basket, which was then loaded into the 600 mL reactor vessel. The reactor vessel was heated to 50° C. and equilibrated with CO2 at atmospheric pressure. […] Agitation was carried out for 1 minute.
After depressurizing the reactor vessel, more acetic acid (4 mL) was introduced at ambient pressure to the additive loop via port 18 (FIG. 1). The loop was sealed and pressurized to 3000 psi. The reactor vessel was the re-pressurized through the additive loop to 3000 psi such that acetic acid was transported into the reactor vessel.
The pressurization/stirring/agitation/depressurization/additive addition process was repeated a total of three times. After the third cycle, a series of three flushing cycles to remove the additive was performed by pressurizing and de-pressurizing the reactor vessel using CO2. The stirring was stopped and the basket was removed from the reactor vessel. The residual CFUs were counted after serial dilution and culturing of both treated and untreated controls.

The subject of test [5] is B. stearothermophilus spores. The test can be described thus: Linearity of inactivation, B. stearothermophilus spore bioindicators in TYVEK pouches (Example 8). The format is cell-based. The note with it: 4.5% peracetic acid at 0.02 vol. % + water at 1 vol. %. The procedure: Example 2B was repeated except that 4.5% peracetic acid was initially added to the vessel at 0.02 vol. % on a cotton ball and water was added on a separate cotton ball at 1 vol. %. B. stearothermophilus spores were inoculated onto glass fiber filters, allowed to dry and packaged into pouches formed of nonwoven fine polyethylene fibers (1073B TYVEK® brand material) and served as bioindicators. Total CFUs per filter were greater than 10^6. The bioindicators were exposed to differing times of treatment with 4 replicates per time point. The total remaining CFUs were then determined and a plot was generated of log reduction in CFUs over time (FIG. 3).

Another test has as its system B. subtilis spores. The note with it: method of the Dillow et al '864 patent, other investigators (Spilimbergo et al 2002); cited from earlier work.

Where “and” joins values, the source holds several entries; their conditions need not be identical. Equal values may be shown once.

On to `O=C(O)CC(O)(CC(=O)O)C(=O)O` [50% Citric acid, Citric acid], for which the Log reduction in test [1] (60 C, 2 hours, 3 cycles) is 0.03–0.62 log.

For the compound `CCO` [Ethanol], the Log reduction in test [1] (60–50 C, 3 hours, 4 cycles) is 1.2–4.0 log.

Turning to `O` [Ex. A, Water], in test [2], the “Final CFU/ml” value was 2.1 × 10^5 CFU/ml; the “Log reduction” value was 1 log and 1.0 log.

In the case of `O=CO` [Formic acid], the Log reduction in test [1] (50 C, 2 hours, 3 cycles) is 0 log.

As for `OCl` [HOCl], the Log reduction in test [1] (60 C, 3 hours, 4 cycles) is given as 0–0.50 log.

As to `O=C(O)CC(=O)O` [Malonic acid], the Log reduction in test [1] (50 C, 2 hours, 3 cycles) is 0–0.12 log.

As to `O=P(O)(O)O` [Phosphoric acid], in test [1] (50 C, 2 hours, 3 cycles), the Log reduction is 0.18–0.25 log.

As for `O=C(O)CCC(=O)O` [Succinic acid], the Log reduction in test [1] (50 C, 2 hours, 3 cycles) is given as 0.25–0.29 log.

Turning to `O=C(O)C(F)(F)F` [Trifluoroacetic acid], the “reduction in bacterial spores (sterility of bone samples)” value in the test with bacterial spores was > 10^6. Also, in test [3], the kill of bioindicators result is “Complete kill”.

Consider `CC(=O)O` [acetic acid], for which, in test [4] (Example 3B: as 3A, samples with less than 10^6 CFU/ml), the “kill of the B. subtilis present” value is recorded as “total kill”. The “log reduction in CFUs extrapolated for greater than 10^6 CFU/ml” value in test [4] (Example 3B: extrapolated from total kill of samples with less than 10^6 CFU/ml) is recorded as 6 log. Further, the kill of bioindicators result in test [4] (Example 3D: as 3A) was “Compete kill”.

On to `CC(=O)OO` [peracetic acid], for which, in test [4] (Example 6B: as 6A), the kill of bioindicators entry was “Complete kill”. The “inactivation rates (log reduction in CFUs over time)” value in test [5] (bioindicators in TYVEK pouches) is on record as “linear”. For the same compound, in test [5] (spores on glass fiber filters in TYVEK pouches, >10^6 CFUs per filter, 4 replicates per time point), the “time for a single log reduction in the bioindicator” value was determined as 14.24 minutes.

On to `O=C=O` [supercritical carbon dioxide, carbon dioxide], for which, in the test with B. subtilis spores, the “log reduction in B. subtilis spores” value is 3.5 log.
